# Data published in patent publication US7115636B2, “Hetrocyclic aryl sulphonamides” (Bayer Healthcare AG, priority 2001, dated 2006).
# pEC50: −log10 of the molar value.
# What was measured:
# Type in all cases: cell-based
# [1] = system: HCMV (human cytomegalovirus); assay: Anti-HCMV cytopathogenicity test; details: Human betaherpesvirus 5, 144 h; inhibition of CPE by 50%, HCMV-infected HELF cells, M.O.I. 0.001–0.002, 6 days
# Method: (§1) Anti-HCMV (anti-human cytomegalovirus) and anti-MCMV (anti-murine cytomegalovirus) cytopathogenicity tests: The test compounds were employed as 50 millimolar (mM) solutions in dimethyl sulfoxide (DMSO). Ganciclovir, foscarnet and cidofovir served as reference compounds. After the addition of 2 μl in each case of the 50, 5, 0.5 and 0.05 mM DMSO stock solutions to 98 μl each of cell culture medium in row […] in duplicate, 1:2 dilutions using 50 μl each of medium up to row 11 of the 96-well plate were carried out. The wells in rows 1 and 12 each contained 50 μl of medium. 150 μl each of a suspension of 1×10^4 cells (human lung fibroblasts [HELF]) were then pipetted into the wells (row 1=cell control) or a mixture of HCMV-infected and non-infected HELF cells (M.O.I.=0.001-0.002), i.e. 1-2 infected cells to 1000 non-infected cells, was pipetted into rows 2-12. Row 12 (without substance) served as a virus control. The final test concentrations were 250-0.0005 μM. The plates were incubated at 37° C./5% CO2 for 6 days, i.e. until all cells were infected in the virus controls (100% cytopathogenic effect [CPE]). The wells were then fixed by addition of a mixture of formalin and Giemsa's stain and stained (30 minutes), washed with double-distilled water and dried at 50° C. in a drying oven. The plates were then evaluated visually using an overhead microscope (Plaque multiplier from Technomara). […]
# [2] = Cytotoxicity on 3T3 cells (anti-MCMV test); details: 3T3 mouse cells, 5 days incubation
# [3] = system: MCMV (murine cytomegalovirus); assay: Anti-MCMV cytopathogenicity test; details: Murid betaherpesvirus 1, 120 h; MCMV on 3T3 mouse cells, M.O.I. 0.05–0.1, 5 days
# Method: Anti-HCMV (anti-human cytomegalovirus) and anti-MCMV (anti-murine cytomegalovirus) cytopathogenicity tests:
# The test compounds were employed as 50 millimolar (mM) solutions in dimethyl sulfoxide (DMSO). Ganciclovir, foscarnet and cidofovir served as reference compounds. After the addition of 2 μl in each case of the 50, 5, 0.5 and 0.05 mM DMSO stock solutions to 98 μl each of cell culture medium in row 2 A-H in duplicate, 1:2 dilutions using 50 μl each of medium up to row 11 of the 96-well plate were carried out. The wells in rows 1 and 12 each contained 50 μl of medium. 150 μl each of a suspension of 1×10^4 cells (human lung fibroblasts [HELF]) were then pipetted into the wells (row 1=cell control) or a mixture of HCMV-infected and non-infected HELF cells (M.O.I.=0.001–0.002), i.e. 1–2 infected cells to 1000 non-infected cells, was pipetted into rows 2–12. Row 12 (without substance) served as a virus control. The final test concentrations were 250–0.0005 μM. The plates were incubated at 37° C./5% CO2 for 6 days, i.e. until all cells were infected in the virus controls (100% cytopathogenic effect [CPE]). The wells were then fixed by addition of a mixture of formalin and Giemsa's stain and stained (30 minutes), washed with double-distilled water and dried at 50° C. in a drying oven. The plates were then evaluated visually using an overhead microscope (Plaque multiplier from Technomara). […]
# [4] = Cytotoxicity on HELF cells (anti-HCMV cytopathogenicity test plates); details: human, human lung fibroblasts (HELF), 6 days incubation
# Method: as §1, with “The” for “Anti-HCMV (anti-human cytomegalovirus) and anti-MCMV (anti-murine cytomegalovirus) cytopathogenicity tests: The”
pEC50 [1],pEC50 [3],SMILES,CC50 at 5 days [2],CC50 at 6 days [4]
7.13,7.13,"CC(C)[C@H](N)c1nc(-c2ccc(S(=O)(=O)Nc3cccc(NC(=O)C(C)(C)CF)c3)cc2)no1 [Example 3, N-(3-{[(4-{5-[(1S)-1-Amino-2-methylpropyl]-1,2,4-oxadiazol-3-yl}phenyl)sulphonyl]amino}phenyl)-3-fluoro-2,2-dimethylpropanamide]",63 µM,> 250 µM
7.55,7.46,CC1(C(=O)Nc2ccc(NS(=O)(=O)c3cccc(-c4noc([C@@H](N)CCCCN)n4)c3)cc2)CC1 [Example 1],18 µM,> 250 µM
